Results: patent publication US6410752B1, “Tocopherol derivatives and method for preparation thereof” (Pacific Corporation, priority 2000, dated 2002)
Where two headings read alike, the source gives them in different places.

What was measured:
[1] = Measurement of antioxidant activity using linoleic acid; conditions: 60° C. dark room, when weight no longer changed, NMR spectroscopy
Description: (§1) 2.0 g of pure linoleic acid was poured on a petri-dish, and here 40 mmol of each of tocopherol, preparation example 1 or tocopherol acetate was added. Then, the mixture solution was maintained in a dark room of 60° C. The oxidation ratio of linoleic oil was measured by daily measurement of the change in weight. The less is the changeability in weight of linoleic acid, the stronger is the antioxidant ability, because the increase in weight of linoleic acid is related to the oxidation of linoleic oil.
In the meantime, when the change in weight of linoleic acid was not observed any longer, the oxidation ratio was determined by using NMR spectroscopy.

[2] = Measurement of antioxidant activity using Lard oil; conditions: 60° C. dark room, when weight no longer changed, NMR spectroscopy
Description: as §1, with “Lard oil” for “pure linoleic acid”, “on” for “on a”, “Lard” for “linoleic”, “determined” for “measured”, “Lard oil,” for “linoleic acid,”, “Lard oil” for “linoleic acid”
In the meantime, when the change in weight of Lard oil was not observed any longer, the oxidation ratio was determined by using NMR spectroscopy.

rabbits [3] = conditions: 0.1 ml of 10% solution in squalene on depilated back site
Description: (§2) If the tocopherol derivatives should be used as cosmetic ingredient, their safety in the living body is very important. […] The product of Preparation Example 1 was dissolved in squalene to produce 10% of solution sample, and the sample was employed in safety experiments.
1-3. Primary skin irritation test: 0.1 ml of test sample was applied to back site (2.5 cm×2.5 cm) of each of 12 rabbits depilated 24 hours before.

phosphodiesterase = conditions: 37° C., 24 hours, 1% aqueous solution of 1:9 mixture with Tween 20, HPLC
Description: The phosphodiesterase was used as biological enzyme, and 1% aqueous solution of 1:9 mixture of preparation example 1 and Tween 20 was prepared to use as an assay sample. After the stirring mixture of the above enzyme, assay sample and medium solution at a temperature of 37° C. for 24 hours, analysis for the hydrolysis ratio of tocopherol derivatives was carried out by using HPLC(MeOH:THF=9:1, R.T.=13.695 min, tocopherol).

rabbits [4] = conditions: 0.1 ml of sample diluted with saline to 2%
Description: as §2
1-4. Eye irritation test: The sample was diluted with saline to produce 2% of test sample, and 0.1 ml of the diluted solution was applied to the eye of each of nine (9) rabbits.

mice [5] = conditions: oral, 1 ml/kg of 10% solution in squalene
Description: as §2
Acute oral toxicity test in mice: 1 ml/kg of the sample was administrated to total ten (10) mice (male and female were separately five (5) mice).

Guinea pigs = conditions: 10% solution in squalene
Description: as §2
1-5. Skin sensitization test: Test was carried out for six (6) (three males and three females) Guinea pigs according to Maggnusson and Kligman's procedure.

[6] = 60° C., in cetylethyl-hexanoate; for Residual ration(%): HPLC
Description: Each 3 g of preparation example 1 product and tocopherol was dissolved with 100 ml of cetylethyl-hexanoate. […] Then, residual ratio of each compound was analyzed by using HPLC. Here, phenyl column, eluate solution of 70% aqueous THF solution including 10 mM SDS and 50 mM H3PO4, flow rate of 1 ml/min and detection of 286 nm was used as HPLC analysis condition of preparation example 1. And ODS column, MeOH as eluate solution, flow rate of 1 ml/min and detection of 290 nm was used as HPLC analysis condition of tocopherol for control.

mice [7] = conditions: percutaneous once, 0.2 ml/kg of 10% solution in squalene, two weeks of observation
Description: as §2
(§3) 1-2. Acute dermal toxicity test in mice and rabbits: 0.2 ml/kg of the sample was administrated percutaneously once to a total of ten (10) mice (five male and five female).

rabbits [8] = conditions: same experiment as in mice (percutaneous, 10% solution in squalene)
Description: as §2, §3

subjects = conditions: repeat insult human patch test
Description: as §2
1-7. Repeat Insult Human Patch Test: Human patch test was carried out for subjects according to CTFA Guideline.

healthy women = conditions: human patch test, healthy women aged 20~28
Description: as §2
1-6. Human patch test: Human patch test was carried out for thirty (30) healthy women aged 20˜28 according to CTFA Guideline(The Cosmetic Toiletry and Fragrance Association, INC., Washington, D.C. 20036, 1991).

[9] = 60° C., in cetylethyl-hexanoate, six months, unaided eye
[10] = tested on: Fibroblast cells of infant; conditions: 24 hours, none-treated sample = 100
Description: The effect on promoting biosynthesis of collagen was examined in vitro for assaying the effect of the present invention on skin, comparing to 3-amino propane phosphate.
Fibroblast cells of infant were inoculated on 24-wells(10^5 cells/well). They were washed with PBS once. And then, preparation example 1 and 3-aminopropane phosphate as a control were treated by the concentration shown Table 3, and were incubated at CO2 incubator for 24 hours. Each supernatant was collected, and the variation of procollagen was measured by using procollangen type (I) ELISA kit. The value of biosynthesis activity was calculated by comparing to 100, the value of none-treated sample.

Compound | oxidation ratio of linoleic acid [1] | oxidation ratio of Lard oil [2] | Residual ration(%) ([6]; Month 1) | Residual ration(%) ([6]; Month 2) | Residual ration(%) ([6]; Month 3) | Residual ration(%) ([6]; Month 4) | Residual ration(%) ([6]; Month 5) | Residual ration(%) ([6]; Month 6) | Residual ration(%) ([6]; Month head blank) | coloration degree [9] | also measured
CC(=O)Oc1c(C)c(C)c2c(c1C)CCC(C)(CCC[C@H](C)CCC[C@H](C)CCCC(C)C)O2 (some centres unmarked) [tocopherol acetate] | about 83% | about 90% |  |  |  |  |  |  |  |  | 
Cc1c(C)c2c(c(C)c1OP(=O)(O)OCCCN)CCC(C)(CCCC(C)CCCC(C)CCCC(C)C)O2 (stereo not drawn) [Preparation Example 1, 3-aminopropyl-α-tocopherol phosphate] | about 3% | about 5% | 100% | 100% | 100% | 100% | 100% | 100% | 100% | did not change in color | skin irritation (rabbits [3]): no skin irritation was observed; hydrolysis ratio (phosphodiesterase): 40%; eye irritation (rabbits [4]): no eye irritation on cornea, iris and conjunctiva was observed; death of mice (mice [5]): no death of mice was observed; difference in the body weight after administration (mice [5]): insignificant; skin abnormality (sensitization) (Guinea pigs): no skin abnormality such as erythema, edema or freckles was observed; stability by quantitative analysis (NMR Spectroscopy), compared with tocopherol [6]: more stable; abnormal symptoms or changes in body weight (mice [7]): no mice administered with the sample exhibited abnormal symptoms or changes in body weight; abnormal symptom and change of body weight (rabbits [8]): No abnormal symptom and change of body weight were observed; repeat irritation / sensitive irritation (subjects): no repeat irritation or no sensitive irritation was observed; primary irritation response (healthy women): primary irritation response was not observed; Biosynthesis activity (%) ([10]; concentration 10^−6 %): 141%
tocopherol [reference compound] | about 83% | about 90% | 100% | 97% | 92% | 88% | 82% | 76% | 100% | increase in coloration at four (4) months or more | 
NCCCOP(=O)(O)O [3-aminopropane phosphate, reference compound] |  |  |  |  |  |  |  |  |  |  | Biosynthesis activity (%) ([10]; concentration 10^−4 %): 146%
